Measurements reported in patent US9924714B2, “Impregnatable matrix of plant, animal or synthetic origin or mixtures of same, containing a uniformly distributed antimicrobial compound, method for impregnating said matrix with a compound, and use thereof in the production of antimicrobial elements” (COMPAÑIA MINERA SAN GERONIMO, priority 2013, dated 2018).
Several values for one entry are separate records, joined by “and”; a condition that tells them apart may be missing. Identical values can stand only once.

Columns and labels:
Assay type in all cases: cell-based
[1] = test system: Enterococcus faecium ISP133/04; test: Disc growth inhibition halo test (Example 2); conditions: commercial disc 30 μg Km
[2] = test system: Pseudomonas aeruginosa PAOI; test: Disc growth inhibition halo test (Example 2); conditions: commercial disc 30 μg Km
[3] = test system: Streptococcus pyogenes ATCC2367; test: Disc growth inhibition halo test (Example 2); conditions: commercial disc 30 μg Km
[4] = test system: Staphylococcus epidermidis ATCC25923; test: Disc growth inhibition halo test (Example 2); conditions: commercial disc 30 μg Km
[5] = test system: Enterobacter aerogenes ATCC13048; test: Disc growth inhibition halo test (Example 2); conditions: commercial disc 30 μg Km
[6] = test system: Enterococcus faecalis ATCC29212; test: Disc growth inhibition halo test (Example 2); conditions: commercial disc 30 μg Km
[7] = test system: Staphylococcus aureus ATCC25923; test: Inhibition halos of fabrics after washing (Example 7); conditions: commercial disc 30 μg Km; in mm
Procedure: (§1) This example established qualitatively the antibacterial activity of matrixes in thin fabric (Fabric 1) and thick fabric (Fabric 2) embedded with the product, following the procedure described herein, and after subjected to washing. In order to do this, there were taken pieces of 2×2 cm from both fabrics, cut and washed for 2 hours with stirring using commercial laundry detergent. Subsequently, the washed fabric pieces which have the new product are dried in an oven at 40° C. for 3 hours and placed on the background lawn. In order to generate the background lawn, it was prepared a bacterial culture of 16 hours, with the strain of interest, it was performed a 1/30 dilution of the culture with fresh medium and incubated under stirring at 37° C. until reaching the exponential growth phase (D0600 nm 0.4-0.5). It was taken an aliquot of 100 μL of the culture in exponential phase, and deposited in 4 mL of Mueller-Hinton soft agar at 0.8% (previously melted and stabilized at 50° C.). The mature was deposited on a Petri dish with 20 mL of Mueller-Hinton agar base. […]
(§2) Experiments were performed in triplicate and in three independent events. From the treated plates, it was measured the zone of inhibition generated by each control and fabrics embedded with the proposed compound, which is summarized in Table 7.

[8] = test system: Escherichia coli ATCC25922; test: as above; conditions: commercial disc 30 μg Km; in mm
Procedure: as §1, §2

[9] = test system: Streptococcus pneumoniae ATCC14325; test: Disc growth inhibition halo test (Example 2); conditions: commercial disc 30 μg Km
[10] = test system: Staphylococcus aureus ATCC25923; test: Disc growth inhibition halo test (Example 2); conditions: commercial disc 30 μg Km
[11] = test system: Escherichia coli ATCC25922; test: Disc growth inhibition halo test (Example 2); conditions: commercial disc 30 μg Km
[12] = test system: Citrobacter freundii ISP1949/99; test: Disc growth inhibition halo test (Example 2); conditions: commercial disc 30 μg Km
[13] = test system: Enterococcus faecium ISP133/04; test: Thick cloth growth inhibition test (Example 6); conditions: commercial disc 30 μg Km; in mm
Procedure: (§3) This example determined qualitatively the antibacterial effect of the copper solution proposed, embedded in a matrix of thick fabric which was prepared following the procedure of the present invention. Pieces of cloth of about 2×2 cm were prepared and embedded with the product and then were deposited on a background lawn of 12 different bacteria strains.
(§4) In order to do this, it was prepared a bacterial culture of 16 hours, with the strain of interest, it was performed a 1/30 dilution of the culture with fresh medium and incubated under stirring at 37° C. until reaching the exponential growth phase (D0600 nm 0.4-0.5). It was taken an aliquot of 100 μL of the culture in exponential phase, and deposited in 4 mL of Mueller-Hinton soft agar at 0.8% (previously melted and stabilized at 50° C.). The mixture was deposited on a Petri dish with 20 mL of Mueller-Hinton agar base. Once the agar was gelled, each of the discs with different amounts of the test compound were deposited on the background lawn, and incubated at 37° C. during 48 hours.
(§5) Experiments were performed in triplicate in independently, using as negative control discs with the solvent DMSO alone and cloth without the product of study. As positive control were used commercial discs used with 30 μg of antibiotic Kanamycin (Km).

[14] = test system: Staphylococcus epidermidis ATCC2S923; test: Thick cloth growth inhibition test (Example 6); conditions: commercial disc 30 μg Km; in mm
Procedure: as §3, §4, §5

[15] = test system: Citrobacter freundii ISP1949/99; test: Thick cloth growth inhibition test (Example 6); conditions: commercial disc 30 μg Km
Procedure: as §3, §4, §5

[16] = test system: Enterobacter aerogenes ATCC13048; test: Thick cloth growth inhibition test (Example 6); conditions: commercial disc 30 μg Km; in mm
Procedure: as §3, §4, §5

[17] = test system: Acinetobacter baumanii UPP4 56; test: Thick cloth growth inhibition test (Example 6); conditions: commercial disc 30 μg Km
Procedure: as §3, §4, §5

[18] = test system: Streptococcus pyogenes ATCC2367; test: Thick cloth growth inhibition test (Example 6); conditions: commercial disc 30 μg Km; in mm
Procedure: as §3, §4, §5

[19] = test system: Enterococcus faecalis ATCC29212; test: Thick cloth growth inhibition test (Example 6); conditions: commercial disc 30 μg Km; in mm
Procedure: as §3, §4, §5

[20] = test system: Staphylococcus aureus ATCC25923; test: Thick cloth growth inhibition test (Example 6); conditions: commercial disc 30 μg Km; in mm
Procedure: as §3, §4, §5

[21] = test system: Streptococcus pneumoniae ATCC14325; test: Thick cloth growth inhibition test (Example 6); conditions: commercial disc 30 μg Km; in mm
Procedure: as §3, §4, §5

[22] = test system: Pseudomonas aeruginosa PAOI; test: Thick cloth growth inhibition test (Example 6); conditions: commercial disc 30 μg Km; in mm
Procedure: as §3, §4, §5

[23] = test system: Escherichia coli ATCC25922; test: Thick cloth growth inhibition test (Example 6); conditions: commercial disc 30 μg Km; in mm
Procedure: as §3, §4, §5

[24] = test system: Klebsiella pneumoniae ATCC4352; test: Thick cloth growth inhibition test (Example 6); conditions: commercial disc 30 μg Km; in mm
Procedure: as §3, §4, §5

NC[C@H]1O[C@H](O[C@H]2[C@H](O)[C@@H](O[C@H]3O[C@H](CO)[C@@H](O)[C@H](N)[C@H]3O)[C@H](N)C[C@@H]2N)[C@H](O)[C@@H](O)[C@@H]1O [Km, Kanamycin]
Growth inhibition zone [1]: 12.5 ± 1.2 mm and 9 ± 0.7 mm and 11.0 mm
Growth inhibition zone [2]: 7 ± 1.0 mm and 9 ± 0.7 mm and 7 + 0.7 mm and 7.0 ± 1.4 mm
Growth inhibition zone [3]: 5 mm and 5.0 mm
Growth inhibition zone [4]: 16 + 0.5 mm and 14 + 0.7 mm and 18 ± 0.7 mm and 18.5 ± 3.5 mm
Growth inhibition zone [5]: 14 + 0.5 mm and 15 ± 0.4 mm and 16 ± 0.4 mm and 19.0 ± 0.7 mm
Growth inhibition zone [6]: 10 mm and 15 + 0.6 mm and 15 ± 0.6 mm and 10.5 ± 0.2 mm
Growth inhibition zone [7]: 18.0 ± 1.4
Growth inhibition zone [8]: 20.6 ± 0.6
Growth inhibition zone [9]: 15 ± 0.8 mm and 12.5 ± 1.2 mm and 11 ± 1 mm and 11.5 ± 0.8 mm
Growth inhibition zone [10]: 21 ± 2 mm and 20 ± 0.8 mm and 15 ± 0.5 mm and 19.0 mm
Growth inhibition zone [11]: 18 ± 1.8 mm and 15 ± 0.2 mm and 18 ± 0.7 mm and 20.0 ± 0.7 mm
Growth inhibition zone [12]: 19 ± 0.3 mm and 12 ± 0.5 mm and 15 ± 0.5 mm and 19.0 ± 0.2 mm
Growth inhibition zone [13]: 11.0 ± 0.8
Growth inhibition zone [14]: 24.0 ± 1.0
Growth inhibition zone [15]: 17.0 ± 0.3
Growth inhibition zone [16]: 12.0 ± 0.5
Growth inhibition zone [17]: 5 mm
Growth inhibition zone [18]: 6.0 ± 1.0
Growth inhibition zone [19]: 14.0 ± 1.0
Growth inhibition zone [20]: 18.0 ± 0.5
Growth inhibition zone [21]: 10.0 ± 0.2
Growth inhibition zone [22]: 7.0 ± 0.5
Growth inhibition zone [23]: 19.0 ± 0.5
Growth inhibition zone [24]: 18.0 ± 1.0
